ChEMBL document CHEMBL1201862, “PubChem BioAssay data set” (2004)
Values belong to the molecule of their own block, whether it stands above or below them. Activity calls are given as the source filed them.

What was measured:
[1] = target: T1, G-protein coupled receptor 55 (Homo sapiens, UniProt Q9Y2T6); test: selective activators of receptor GPR55 – imaging, U2OS cells, beta-arrestin-GFP redistribution, primary screen (AID 1961); assay type: functional
[2] = HRAS-V12 fibroblast viability reduction – cell-based, Alamar Blue, dry powder, Ras selective lethality project, primary screen (AID 493045); assay type: functional; conditions: BJeLR
[3] = BJeHLT cell viability loss – BJeHLT cells, dry powder, counter-screen for Ras selective lethality project, dose response (AID 493052); assay type: functional, cell-based; conditions: Homo sapiens
[4] = BJeH cell viability loss – BJeH cells, dry powder, counter-screen for Ras selective lethality project, dose response (AID 493054); assay type: functional, cell-based
[5] = DRD BJ cell killing, Ras synthetic lethality – DRD BJ fibroblasts, HRASV12, dry powder, dose response (AID 493049); assay type: functional, cell-based
[6] = fluconazole-exposed Candida albicans growth modulators – fluorescence, retest, confirmation (AID 2467); assay type: functional, cell-based
[7] = target: T1, G-protein coupled receptor 55; test: inhibition of LPI-stimulated GPR55 beta-arrestin translocation – imaging, U2OS, beta-arrestin-GFP, LPI agonist, primary screen (AID 2013); assay type: functional;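 further: antagonist potency measured as reduced agonist-driven arrestin aggregation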
[8] = target: G-protein coupled receptor 35 (Homo sapiens, UniProt Q9HC97); test: inhibition of zaprinast-stimulated GPR35 beta-arrestin translocation – imaging, U2OS, beta-arrestin-GFP, zaprinast agonist, primary screen (AID 2058); assay type: functional;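 further: antagonist potency meaning inhibition of agonist-induced arrestin redistribution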
G-protein coupled receptor 35, sequence (Q9HC97 whole entry): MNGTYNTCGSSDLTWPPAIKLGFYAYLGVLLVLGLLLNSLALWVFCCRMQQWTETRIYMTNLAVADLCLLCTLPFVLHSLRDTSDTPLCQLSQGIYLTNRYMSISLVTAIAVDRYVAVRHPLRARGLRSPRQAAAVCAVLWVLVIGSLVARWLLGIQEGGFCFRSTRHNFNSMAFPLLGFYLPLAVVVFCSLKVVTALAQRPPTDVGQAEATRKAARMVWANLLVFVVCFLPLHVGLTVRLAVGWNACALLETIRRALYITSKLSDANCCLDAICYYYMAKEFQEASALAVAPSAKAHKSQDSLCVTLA

[9] = tested on: INS1; test: INS-1E survival protection against cytokine death – cell-based, luminescence, retest, dose response (AID 449756); assay type: functional; conditions: Rattus norvegicus;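 further: cell death triggered by IL-1 beta plus TNF-alpha plus IFN-gamma mixture; protective hits raise ATP signal compared with cytokine alone wells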
[10] = NIH-3T3 fibroblast cytotoxicity, dose response, cytotoxicity control, cell-based, fluorescence, Alamar Blue, secondary assay (AID 2327); assay type: functional;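 further: NIH-3T3 mouse fibroblasts cultured with fluconazole at 8 µg/mL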
[11] = target: Phosphoethanolamine/phosphocholine phosphatase (Homo sapiens, UniProt Q8TCT1); test: SAR assay for compounds that inhibit PHOSPHO1. [Related pubchem assays (depositor defined):AID1545, AID1565, AID1574]
Phosphoethanolamine/phosphocholine phosphatase, sequence (Q8TCT1 whole entry): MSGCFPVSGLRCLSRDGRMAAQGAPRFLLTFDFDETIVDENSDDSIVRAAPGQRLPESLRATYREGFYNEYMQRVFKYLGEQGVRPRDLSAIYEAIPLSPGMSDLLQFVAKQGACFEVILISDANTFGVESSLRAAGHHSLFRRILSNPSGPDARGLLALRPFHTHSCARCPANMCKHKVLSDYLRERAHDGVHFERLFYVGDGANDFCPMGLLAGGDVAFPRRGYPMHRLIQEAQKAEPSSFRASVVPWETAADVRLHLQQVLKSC

[12] = target: Phosphomannomutase 2 (Homo sapiens, UniProt O15305); test: Counter screen SAR assay for PMM2 inhibitors via a fluorescence intensity assay. [Related pubchem assays (depositor defined):AID1545, AID1574]
Phosphomannomutase 2, sequence (O15305 whole entry): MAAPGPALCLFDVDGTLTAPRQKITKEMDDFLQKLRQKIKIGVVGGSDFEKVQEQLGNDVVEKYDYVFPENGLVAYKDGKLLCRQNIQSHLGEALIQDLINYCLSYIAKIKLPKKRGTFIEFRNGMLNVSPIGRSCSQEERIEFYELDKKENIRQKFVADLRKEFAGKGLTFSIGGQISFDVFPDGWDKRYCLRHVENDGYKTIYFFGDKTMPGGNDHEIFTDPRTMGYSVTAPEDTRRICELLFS

[13] = target: T2, Mannose-6-phosphate isomerase (Homo sapiens, UniProt P34949); test: phosphomannose isomerase inhibition – biochemical, fluorescence intensity, confirmation (AID 1535)
T2 sequence (P34949 whole entry): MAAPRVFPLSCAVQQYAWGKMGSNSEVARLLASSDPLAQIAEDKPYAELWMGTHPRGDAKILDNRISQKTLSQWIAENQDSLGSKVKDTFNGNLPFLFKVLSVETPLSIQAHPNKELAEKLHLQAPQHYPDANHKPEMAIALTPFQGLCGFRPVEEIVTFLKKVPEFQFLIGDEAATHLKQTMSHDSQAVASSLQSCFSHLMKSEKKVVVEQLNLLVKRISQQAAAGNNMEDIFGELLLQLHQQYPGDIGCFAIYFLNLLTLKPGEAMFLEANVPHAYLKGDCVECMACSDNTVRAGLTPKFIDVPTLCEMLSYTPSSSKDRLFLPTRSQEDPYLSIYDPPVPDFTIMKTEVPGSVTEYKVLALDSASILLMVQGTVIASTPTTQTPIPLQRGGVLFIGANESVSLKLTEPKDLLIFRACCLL

[14] = target: Potassium voltage-gated channel subfamily KQT member 2 (Rattus norvegicus, UniProt O88943); test: potentiation of rat KCNQ2 current – cell-based, retigabine-insensitive compounds, dose response (AID 2654); assay type: functional
Potassium voltage-gated channel subfamily KQT member 2, sequence (O88943 whole entry): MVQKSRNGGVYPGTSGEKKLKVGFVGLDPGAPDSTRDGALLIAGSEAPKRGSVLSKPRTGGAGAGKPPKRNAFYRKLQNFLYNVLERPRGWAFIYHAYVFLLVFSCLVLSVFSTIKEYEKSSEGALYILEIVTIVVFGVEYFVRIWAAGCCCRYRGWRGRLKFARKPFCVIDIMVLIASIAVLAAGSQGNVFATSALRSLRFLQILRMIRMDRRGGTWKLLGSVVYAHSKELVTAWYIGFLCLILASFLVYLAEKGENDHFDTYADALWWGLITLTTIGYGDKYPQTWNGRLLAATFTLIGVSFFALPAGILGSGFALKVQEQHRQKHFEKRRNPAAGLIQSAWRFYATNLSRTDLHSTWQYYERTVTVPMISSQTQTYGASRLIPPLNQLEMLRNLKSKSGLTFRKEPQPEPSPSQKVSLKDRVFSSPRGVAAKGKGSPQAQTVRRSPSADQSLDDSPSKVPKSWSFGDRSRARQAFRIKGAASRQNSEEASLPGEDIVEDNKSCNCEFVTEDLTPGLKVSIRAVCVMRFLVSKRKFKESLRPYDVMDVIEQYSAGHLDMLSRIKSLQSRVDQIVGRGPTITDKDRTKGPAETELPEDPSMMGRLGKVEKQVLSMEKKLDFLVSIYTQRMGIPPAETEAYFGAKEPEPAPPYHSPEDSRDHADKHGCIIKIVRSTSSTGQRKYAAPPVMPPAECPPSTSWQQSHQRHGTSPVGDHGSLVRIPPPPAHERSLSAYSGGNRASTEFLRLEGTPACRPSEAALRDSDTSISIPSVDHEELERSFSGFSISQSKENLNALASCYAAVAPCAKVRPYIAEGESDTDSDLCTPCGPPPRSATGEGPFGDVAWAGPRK

[15] = target: Acyl-homoserine lactone acylase PvdQ (Pseudomonas aeruginosa (strain LESB58), UniProt Q9I194); test: PvdQ acylase enzyme activity blockers – biochemical, fluorescence, plate reader and imaging, cherry-picks, dose response (AID 493231)
Acyl-homoserine lactone acylase PvdQ, sequence (Q9I194 24-193 limits assumed): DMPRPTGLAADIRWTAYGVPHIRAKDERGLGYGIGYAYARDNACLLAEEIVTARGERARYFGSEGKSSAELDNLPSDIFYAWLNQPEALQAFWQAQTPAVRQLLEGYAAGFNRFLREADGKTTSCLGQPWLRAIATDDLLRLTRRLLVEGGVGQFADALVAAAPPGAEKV
Acyl-homoserine lactone acylase PvdQ, sequence (Q9I194 217-762 limits assumed): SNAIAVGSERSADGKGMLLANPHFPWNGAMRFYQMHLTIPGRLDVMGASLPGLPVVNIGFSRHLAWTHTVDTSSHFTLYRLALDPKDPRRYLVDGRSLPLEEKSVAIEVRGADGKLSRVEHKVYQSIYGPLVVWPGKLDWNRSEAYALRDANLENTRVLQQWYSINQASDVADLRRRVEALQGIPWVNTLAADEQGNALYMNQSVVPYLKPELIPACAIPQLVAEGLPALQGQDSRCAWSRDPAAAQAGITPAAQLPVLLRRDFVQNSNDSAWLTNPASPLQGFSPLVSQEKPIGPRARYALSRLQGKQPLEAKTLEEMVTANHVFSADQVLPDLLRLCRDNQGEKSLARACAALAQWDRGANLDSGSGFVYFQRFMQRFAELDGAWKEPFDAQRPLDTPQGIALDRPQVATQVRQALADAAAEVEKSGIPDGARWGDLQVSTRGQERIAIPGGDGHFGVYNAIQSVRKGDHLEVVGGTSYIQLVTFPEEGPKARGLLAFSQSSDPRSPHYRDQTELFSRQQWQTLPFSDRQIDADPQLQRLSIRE

[16] = target: T3, Ubiquitin-conjugating enzyme E2 N (Homo sapiens, UniProt P61088); assay type: functional;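 further: Dose-response confirmation in a TR-FRET assay detecting UBC13-driven polyubiquitin chain formation, inhibition measured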
T3 sequence (P61088 whole entry): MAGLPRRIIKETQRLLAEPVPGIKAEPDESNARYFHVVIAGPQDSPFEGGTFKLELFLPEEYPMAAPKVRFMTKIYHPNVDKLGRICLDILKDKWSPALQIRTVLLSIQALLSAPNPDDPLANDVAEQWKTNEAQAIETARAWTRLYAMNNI

[17] = target: T4, Protein skinhead-1 (Caenorhabditis elegans, UniProt P34707); assay type: functional
T4 sequence (P34707 whole entry): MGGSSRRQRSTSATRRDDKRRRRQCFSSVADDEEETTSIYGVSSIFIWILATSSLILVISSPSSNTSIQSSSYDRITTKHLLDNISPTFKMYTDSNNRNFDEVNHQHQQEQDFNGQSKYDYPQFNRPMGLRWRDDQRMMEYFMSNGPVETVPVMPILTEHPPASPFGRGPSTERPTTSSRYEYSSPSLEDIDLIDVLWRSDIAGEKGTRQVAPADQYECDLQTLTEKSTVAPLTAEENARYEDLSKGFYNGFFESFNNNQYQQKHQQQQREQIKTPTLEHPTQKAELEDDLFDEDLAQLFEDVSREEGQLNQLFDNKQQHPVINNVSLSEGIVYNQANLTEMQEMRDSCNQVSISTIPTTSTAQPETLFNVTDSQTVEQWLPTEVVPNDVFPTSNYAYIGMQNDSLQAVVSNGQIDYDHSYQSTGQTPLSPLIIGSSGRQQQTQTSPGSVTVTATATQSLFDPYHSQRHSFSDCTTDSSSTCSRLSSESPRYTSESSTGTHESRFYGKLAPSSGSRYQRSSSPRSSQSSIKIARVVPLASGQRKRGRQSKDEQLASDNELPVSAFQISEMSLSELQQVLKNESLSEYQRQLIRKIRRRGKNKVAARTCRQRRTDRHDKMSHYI

T1 sequence (Q9Y2T6 whole entry): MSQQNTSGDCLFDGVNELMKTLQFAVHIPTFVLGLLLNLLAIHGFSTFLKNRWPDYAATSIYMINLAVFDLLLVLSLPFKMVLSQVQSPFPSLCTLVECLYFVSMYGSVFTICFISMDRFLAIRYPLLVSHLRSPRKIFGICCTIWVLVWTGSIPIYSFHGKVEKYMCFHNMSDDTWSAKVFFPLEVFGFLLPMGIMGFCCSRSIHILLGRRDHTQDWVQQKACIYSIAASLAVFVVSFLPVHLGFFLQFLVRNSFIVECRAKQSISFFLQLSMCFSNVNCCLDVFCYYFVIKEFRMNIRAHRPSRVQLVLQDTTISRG

- EC50 [1]: 13.7 µM (inactive)
Structure (SMILES): O=C(c1ccco1)N1CCN(c2ncnc3c2nnn3Cc2ccccc2Cl)CC1

Structure (SMILES): COc1ccc(N(C(=O)CCl)C(C(=O)NCCc2ccccc2)C(C)C)cc1Cl (configuration not stated)
- AC50 [2]: 0.895 µM (active)
- AC50 [3]: 1.3 µM (active)
- AC50 [4]: 1.81 µM (active)
- AC50 [5]: 0.887 µM (active)

Structure (SMILES): COc1ccc(C)cc1Nc1n[n+](-c2ccccc2)c(-c2ccc(N(C)C)cc2)s1
- EC50 [6]: 2.27 µM (active)
- IC50 [7]: 3.42 µM (active)
- IC50 [8]: 3.54 µM (active)
- AC50 [9]: 2.53 µM (active)
- EC50 [10]: > 150 µM (inactive)

- IC50 [11]: 0.563 µM (active)
- IC50 [12]: > 100 µM (inactive)
- IC50 [13]: > 50 µM (inactive)
Structure (SMILES): O=c1c2ccc(F)cc2sn1-c1cc(Cl)c(Cl)cc1Cl

- EC50 [14]: 13.4 µM (active)
Structure (SMILES): Cc1ccc(NC(=O)Nc2cccnc2)cc1C

Structure (SMILES): Cc1cccn2c(=O)c(C=O)c(N3CCCCCC3)nc12
- AC50 [15]: 24.8 µM (active)
- IC50 [16]: > 20 µM (inactive)
- IC50 [17]: > 100 µM (inactive)
